We go through three compounds from ChEMBL document CHEMBL1127115, “Synthesis and antihypertensive activity of KC-399, a benzopyran K+ channel opener with long duration of action and less tachycardia” (Bioorg Med Chem Lett, 1993).

Assay type in all cases: functional
Assay [1] relates to Rattus norvegicus. Briefly: Heart rate was determined in conscious male spontaneously hypertensive rats (SHR) at a dose of 0.3 mg/Kg.
Assay [2] has as its system Rattus norvegicus. The experiment in a line: Tested for antihypertensive activity, duration of action at the dose of 0.03 mg/Kg was determined; ranges from 7-8h.
Assay [3] has as its system Rattus norvegicus. Briefly: Mean blood pressure was determined in conscious male SHR at a dose of 0.1 mg/Kg.
Assay [4] deals with Rattus norvegicus. The experiment in a line: Heart rate was determined in conscious male spontaneously hypertensive rats (SHR) at a dose of 0.1 mg/Kg.
Assay [5] relates to Rattus norvegicus. Briefly: Antihypertensive activity in spontaneously hypertensive rats (SHR) expressed as dose required to produce fall in mean blood pressure (MBP) by peroral administration.
Assay [6] relates to Rattus norvegicus. Briefly: Mean blood pressure was determined in conscious male spontaneously hypertensive rats (SHR) at a dose of 0.3 mg/Kg.
Assay [7] concerns Rattus norvegicus. Briefly: Tested for antihypertensive activity in spontaneously hypertensive rats (SHR) as dose required to produce fall in mean blood pressure (MBP) by peroral administration.
Assay [8] relates to Rattus norvegicus. The experiment in a line: Heart rate was determined in conscious male spontaneously hypertensive rats (SHR) at a dose of 0.01 mg/Kg dose.
The subject of assay [9] is Rattus norvegicus. Briefly: Mean blood pressure was determined in conscious male spontaneously hypertensive rats (SHR) at a dose of 0.01 mg/Kg.
The species entered for assay [10] is Rattus norvegicus. Briefly: Tested for effective concentration required to relax contraction induced by 30 mM KCl in rat aorta.
The test system of assay [11] is Rattus norvegicus. Briefly: Mean blood pressure was determined in conscious male spontaneously hypertensive rats (SHR) at a dose of 0.03 mg/Kg.
Assay [12] has as its system Rattus norvegicus. The experiment in a line: Heart rate was determined in conscious male spontaneously hypertensive rats (SHR) at a dose of 0.03 mg/Kg dose.

As for `CC1(C)Oc2ccc(C#N)cc2[C@@H](N2CCCC2=O)[C@@H]1O` [LEVCROMAKALIM], the Heart rate in the assay with Rattus norvegicus [1] stood at 313 beats min-1; in the assay with Rattus norvegicus [4] it was 318 beats min-1. Moreover, the Duration of action in the assay on Rattus norvegicus [2] is 7 h. Besides, the Blood pressure in the assay with Rattus norvegicus [3] is 146 mmHg; with Rattus norvegicus [6] it was 153 mmHg. Besides, the figures for the Dose in the assay with Rattus norvegicus [5] and in the assay on Rattus norvegicus [7] were 0.3 mg/kg and 0.1 mg/kg, respectively.

The term EC50 denotes the concentration at which the effect is half-maximal. The low end stands for a more potent agent, the high end for a less potent agent. For the compound `N#CCC/N=C(\S)C1=CC(CF)(CF)Oc2ccc([N+](=O)[O-])cc21`, the figures for the Heart rate in the assay on Rattus norvegicus [8] and in the assay on Rattus norvegicus [12] were 310 beats min-1 and 323 beats min-1, respectively. This compound showed a Duration of action in the assay on Rattus norvegicus [2] of 7 h. Besides, the Dose in the assay on Rattus norvegicus [5] was 0.03 mg/kg; in the assay on Rattus norvegicus [7], 0.01 mg/kg. In addition, the Blood pressure with Rattus norvegicus [9] came to 156 mmHg; in the assay with Rattus norvegicus [11], 155 mmHg. The EC50 in the assay filed under Rattus norvegicus [10] came to 0.3 nM.

`CC1(C)Oc2ccc(C#N)cc2C(N2CCCC2=O)C1O` (stereo unspecified) [CROMAKALIM] returned an EC50 in the assay listed under Rattus norvegicus [10] of 150 nM.
